Source: patent US9579314B2 (priority 2015, dated 2017)

Columns and labels:
Human β2 adrenoceptor = Human β2 adrenoceptor (Homo sapiens, UniProt P07550); conditions: read-out: B2 binding affinity
Human M3 receptor = Human M3 receptor (Homo sapiens, UniProt P20309); conditions: read-out: M3 binding affinity
Chain of Human M3 receptor (P20309 whole entry): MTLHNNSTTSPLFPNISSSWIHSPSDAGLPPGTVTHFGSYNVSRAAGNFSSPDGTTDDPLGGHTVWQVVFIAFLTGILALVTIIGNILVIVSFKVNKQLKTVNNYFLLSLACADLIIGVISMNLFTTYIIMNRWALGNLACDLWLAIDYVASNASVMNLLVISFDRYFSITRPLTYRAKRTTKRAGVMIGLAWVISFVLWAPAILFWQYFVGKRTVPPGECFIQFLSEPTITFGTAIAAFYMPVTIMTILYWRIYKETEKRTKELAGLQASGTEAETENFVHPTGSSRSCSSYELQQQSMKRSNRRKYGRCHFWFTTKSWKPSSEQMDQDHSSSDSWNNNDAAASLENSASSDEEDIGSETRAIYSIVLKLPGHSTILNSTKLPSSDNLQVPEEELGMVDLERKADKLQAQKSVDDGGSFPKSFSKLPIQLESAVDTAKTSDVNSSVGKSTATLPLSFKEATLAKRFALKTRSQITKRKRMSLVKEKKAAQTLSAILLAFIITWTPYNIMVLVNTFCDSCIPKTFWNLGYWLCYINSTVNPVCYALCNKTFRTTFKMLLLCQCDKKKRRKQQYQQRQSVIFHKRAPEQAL

Chain of Human β2 adrenoceptor (P07550 whole entry): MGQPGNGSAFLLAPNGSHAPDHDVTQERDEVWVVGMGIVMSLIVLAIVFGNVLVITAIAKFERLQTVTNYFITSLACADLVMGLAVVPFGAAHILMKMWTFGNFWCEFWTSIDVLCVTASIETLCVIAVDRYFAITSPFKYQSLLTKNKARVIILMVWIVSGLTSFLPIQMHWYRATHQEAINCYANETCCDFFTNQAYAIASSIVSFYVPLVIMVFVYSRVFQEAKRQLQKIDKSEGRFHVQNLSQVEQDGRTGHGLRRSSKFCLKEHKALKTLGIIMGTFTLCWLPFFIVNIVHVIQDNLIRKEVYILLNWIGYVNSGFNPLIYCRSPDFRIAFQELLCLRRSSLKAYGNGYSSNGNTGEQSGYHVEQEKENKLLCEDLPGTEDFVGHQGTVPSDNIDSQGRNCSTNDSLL

| Structure (SMILES) | IC50 (Human β2 adrenoceptor) [nM] | IC50 (Human M3 receptor) [nM] |
| --- | --- | --- |
| O=C(NCCN(Cc1ccccc1)C(=O)COc1cccc([C@](O)(C(=O)OCC2CCN(Cc3ccccc3)CC2)c2ccccc2)c1)c1ccc(CCNC[C@H](O)c2ccc(O)c3[nH]c(=O)ccc23)cc1 [Compound 87, (1-benzylpiperidin-4-yl)methyl (S)-2-(3-(2-(benzyl(2-(4-(2-(((R)-2-hydroxy-2-(8-hydroxy-2-oxo-1,2-dihydroquinolin-5-yl)ethyl)amino)ethyl)benzamido)ethyl)amino)-2-oxoethoxy)phenyl)-2-hydroxy-2-phenylacetate] | 0.3 to 3 | 0.3 to 3 |
| O=C(COc1cccc([C@](O)(C(=O)OCC2CCN(Cc3ccccc3)CC2)c2ccccc2)c1)N[C@H]1C[C@H](NC(=O)c2ccc(CCNC[C@H](O)c3ccc(O)c4[nH]c(=O)ccc34)cc2)C1 [Compound 88, (1-benzylpiperidin-4-yl)methyl (S)-2-hydroxy-2-(3-(2-(((1R,3S)-3-(4-(2-(((R)-2-hydroxy-2-(8-hydroxy-2-oxo-1,2-dihydroquinolin-5-yl)ethyl)amino)ethyl)benzamido)cyclobutyl)amino)-2-oxoethoxy)phenyl)-2-phenylacetate] | 0.3 to 3 | < 0.3 |
| O=C(NCC1CCN(C(=O)COc2cccc([C@](O)(C(=O)OCC3CCN(Cc4ccccc4)CC3)c3ccccc3)c2)CC1)c1ccc(CCNC[C@H](O)c2ccc(O)c3[nH]c(=O)ccc23)cc1 [Compound 89, (1-benzylpiperidin-4-yl)methyl (S)-2-hydroxy-2-(3-(2-(4-((4-(2-(((R)-2-hydroxy-2-(8-hydroxy-2-oxo-1,2-dihydroquinolin-5-yl)ethyl)amino)ethyl)benzamido)methyl)piperidin-1-yl)-2-oxoethoxy)phenyl)-2-phenylacetate] | < 0.3 | 0.3 to 3 |
| O=C(COc1cccc([C@](O)(C(=O)OCC2CCN(Cc3ccccc3)CC2)c2ccccc2)c1)N[C@H]1CC[C@H](NC(=O)c2ccc(CCNC[C@H](O)c3ccc(O)c4[nH]c(=O)ccc34)cc2)CC1 [Compound 90, (1-benzylpiperidin-4-yl)methyl (S)-2-hydroxy-2-(3-(2-(((1R,4S)-4-(4-(2-(((R)-2-hydroxy-2-(8-hydroxy-2-oxo-1,2-dihydroquinolin-5-yl)ethyl)amino)ethyl)benzamido)cyclohexyl)amino)-2-oxoethoxy)phenyl)-2-phenylacetate] | 0.3 to 3 | 0.3 to 3 |
| O=C(COc1cccc([C@](O)(C(=O)OCC2CCN(Cc3ccccc3)CC2)c2ccccc2)c1)NC1CCN(C(=O)c2ccc(CCNC[C@H](O)c3ccc(O)c4[nH]c(=O)ccc34)cc2)CC1 [Compound 91, (1-benzylpiperidin-4-yl)methyl (S)-2-hydroxy-2-(3-(2-((1-(4-(2-(((R)-2-hydroxy-2-(8-hydroxy-2-oxo-1,2-dihydroquinolin-5-yl)ethyl)amino)ethyl)benzoyl)piperidin-4-yl)amino)-2-oxoethoxy)phenyl)-2-phenylacetate] | < 0.3 | 0.3 to 3 |
| O=C(NC1CCN(C(=O)COc2cccc([C@](O)(C(=O)OCC3CCN(Cc4ccccc4)CC3)c3ccccc3)c2)CC1)c1ccc(CCNC[C@H](O)c2ccc(O)c3[nH]c(=O)ccc23)cc1 [Compound 92, (1-benzylpiperidin-4-yl)methyl (S)-2-hydroxy-2-(3-(2-(4-(4-(2-(((R)-2-hydroxy-2-(8-hydroxy-2-oxo-1,2-dihydroquinolin-5-yl)ethyl)amino)ethyl)benzamido)piperidin-1-yl)-2-oxoethoxy)phenyl)-2-phenylacetate] | < 0.3 | < 0.3 |
| O=C(COc1cccc([C@](O)(C(=O)OCC2CCN(Cc3ccccc3)CC2)c2ccccc2)c1)N1CC2(C1)CN(C(=O)c1ccc(CCNC[C@H](O)c3ccc(O)c4[nH]c(=O)ccc34)cc1)C2 [Compound 93, (1-benzylpiperidin-4-yl)methyl (S)-2-hydroxy-2-(3-(2-(6-(4-(2-(((R)-2-hydroxy-2-(8-hydroxy-2-oxo-1,2-dihydroquinolin-5-yl)ethyl)amino)ethyl)benzoyl)-2,6-diazaspiro[3.3]heptan-2-yl)-2-oxoethoxy)phenyl)-2-phenylacetate] | < 0.3 | 0.3 to 3 |
